Some test systems named below: U251 CNS; MALME-3M melanoma; SF-268 CNS; UACC-257 melanoma; NCI-H460 lung; SK-OV-3 ovarian; DU-145 prostate; UACC-62 melanoma.
Test in all cases: DTP human tumour cell line panel, 48 h

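Dose response: 5 concentrations. Exposure: 48 h. Format: 96-well plates. Endpoint: linear interpolation; highest concentration if not reached. Here, GI50 denotes the concentration required for 50% inhibition of growth. TGI marks complete inhibition of growth.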 A value given as a limit tells only on which side of the number the result lay.

Broadly, the GI50 is the concentration at which growth is held to half of that of the control. The TGI is the concentration giving total growth inhibition. A high value points to lower sensitivity of the cells. Regarding `CCC(=O)NC1=C(Cl)C(=O)C(NC(=O)CC)=C(Cl)C1=O`, the GI50 in the experiment on U251 CNS was more than 41.9 µM; in the experiment on MALME-3M melanoma it was 5.17 µM; in the experiment on SF-268 CNS, 19.7 µM; with UACC-257 melanoma, 14.8 µM; in the experiment with NCI-H460 lung it was more than 45.7 µM; in the experiment with SK-OV-3 ovarian it was more than 73.1 µM. The GI50 in the experiment on DU-145 prostate is 9.49 µM; with UACC-62 melanoma, 29.7 µM. Moreover, the TGI is more than 56 µM in the experiment with U251 CNS; 10.1 µM with MALME-3M melanoma; 34.2 µM with SF-268 CNS; 28.3 µM with UACC-257 melanoma; more than 63.3 µM with NCI-H460 lung; more than 100 µM in the experiment with SK-OV-3 ovarian. Besides, the results for the TGI in the experiment on DU-145 prostate and in the experiment on UACC-62 melanoma were 22.3 µM and more than 57.3 µM, respectively.

Consider `COc1cc2ncnc(Oc3ccc(NC(=O)Nc4ccc(CN5CCOCC5)c(C(F)(F)F)c4)c4ccccc34)c2cc1OC`, for which the GI50 in the experiment with U251 CNS is 1.05 µM; in the experiment with MALME-3M melanoma it was 0.302 µM; in the experiment on SF-268 CNS, 0.453 µM; in the experiment with UACC-257 melanoma it was 0.964 µM; in the experiment on NCI-H460 lung, 1.37 µM; in the experiment on SK-OV-3 ovarian, 0.254 µM. The GI50 with DU-145 prostate is 1.59 µM; with UACC-62 melanoma, 0.637 µM. Moreover, the TGI in the experiment on U251 CNS came out at 4.01 µM; with MALME-3M melanoma, 1.54 µM; in the experiment with SF-268 CNS it was 8.94 µM; in the experiment with UACC-257 melanoma, 4.12 µM; in the experiment with NCI-H460 lung, 3.64 µM; with SK-OV-3 ovarian, 1.26 µM. Further, the TGI in the experiment with DU-145 prostate is 12.4 µM; with UACC-62 melanoma it was 3 µM.

On to `COc1nn(C)cc1Nc1nccc(-c2c[nH]c3c(NC(=O)[C@@H](C)N4CCN(C)CC4)cccc23)n1`, for which the GI50 in the experiment with U251 CNS was 43.7 µM; in the experiment on MALME-3M melanoma, 20.1 µM; with SF-268 CNS, 36 µM; in the experiment with UACC-257 melanoma, 27.7 µM; in the experiment on NCI-H460 lung it was 40.7 µM; in the experiment on SK-OV-3 ovarian, 44.2 µM. For the same compound, the GI50 is 62.8 µM in the experiment on DU-145 prostate and 40.6 µM in the experiment on UACC-62 melanoma. In addition, the total growth inhibition concentration (TGI) was more than 100 µM in the experiment on U251 CNS; 73.1 µM in the experiment on MALME-3M melanoma; more than 100 µM with SF-268 CNS; 78.7 µM with UACC-257 melanoma; more than 100 µM in the experiment with NCI-H460 lung; more than 100 µM in the experiment with SK-OV-3 ovarian. The concentration for total growth inhibition (TGI) in the experiment with DU-145 prostate and in the experiment on UACC-62 melanoma was more than 100 µM in each case.

As to `OC(c1cc(C(F)(F)F)nc2c(Cl)cc(Cl)cc12)C1CCCCN1` (stereo unspecified), the TGI with U251 CNS was more than 48.3 µM; in the experiment with MALME-3M melanoma it was more than 36.9 µM; in the experiment with SF-268 CNS, more than 40.7 µM; in the experiment with UACC-257 melanoma, more than 38.8 µM; in the experiment on NCI-H460 lung it was more than 26.7 µM; in the experiment on SK-OV-3 ovarian, 25.2 µM. In addition, the total growth inhibition concentration (TGI) in the experiment with DU-145 prostate was 20 µM; in the experiment with UACC-62 melanoma, more than 47.7 µM.

As to `CCN1CCN(C(=O)[C@]23CC[C@@H](C)[C@H](C)[C@@H]2C2=CC[C@@H]4[C@@]5(C)CCC(=O)C(C)(C)[C@@H]5CC[C@@]4(C)[C@]2(C)CC3)CC1`, the GI50 was 0.854 µM with U251 CNS; 0.807 µM in the experiment with MALME-3M melanoma; 1.77 µM in the experiment with SF-268 CNS; 0.985 µM in the experiment with UACC-257 melanoma; 0.93 µM in the experiment on NCI-H460 lung; 1.51 µM in the experiment on SK-OV-3 ovarian. For the same compound, the GI50 in the experiment with DU-145 prostate is 1.67 µM; with UACC-62 melanoma it was 0.835 µM. The TGI was determined as 1.85 µM with U251 CNS; 1.51 µM with MALME-3M melanoma; 6.49 µM with SF-268 CNS; 2.19 µM with UACC-257 melanoma; 1.75 µM with NCI-H460 lung; 4.83 µM with SK-OV-3 ovarian. Besides, the total growth inhibition concentration (TGI) in the experiment with DU-145 prostate amounted to 5.62 µM; with UACC-62 melanoma it was 1.61 µM.

On to `Nc1nc(-c2ccc3c(c2)/C(=C\c2cc(Br)c(O)c(Br)c2)C(=O)N3)cs1`, for which the GI50 with U251 CNS is 12.8 µM; with MALME-3M melanoma it was 5.95 µM; in the experiment on SF-268 CNS, 16.3 µM; in the experiment with UACC-257 melanoma, 5.57 µM; in the experiment with NCI-H460 lung, 16.4 µM; with SK-OV-3 ovarian, 17.9 µM. For the same compound, the GI50 in the experiment with DU-145 prostate was 18.6 µM; in the experiment on UACC-62 melanoma, 6.89 µM. Besides, the TGI with U251 CNS is more than 25 µM; in the experiment on MALME-3M melanoma, 17.4 µM; in the experiment on SF-268 CNS, more than 25 µM; in the experiment on UACC-257 melanoma, 14.4 µM; in the experiment on NCI-H460 lung, more than 25 µM; in the experiment on SK-OV-3 ovarian it was more than 25 µM. In addition, the TGI is more than 25 µM in the experiment on DU-145 prostate and 23.7 µM in the experiment on UACC-62 melanoma.

As to `O=C(Nc1nc2c(C(F)(F)F)cccc2s1)c1cc(Cl)ccc1O`, the GI50 is 0.312 µM in the experiment with U251 CNS; 0.231 µM in the experiment on MALME-3M melanoma; 0.422 µM in the experiment on SF-268 CNS; 0.273 µM with UACC-257 melanoma; 0.32 µM with NCI-H460 lung; 0.236 µM in the experiment with SK-OV-3 ovarian. Also, the GI50 in the experiment on DU-145 prostate is 0.466 µM; in the experiment on UACC-62 melanoma, 0.252 µM. The total growth inhibition concentration (TGI) was 42.6 µM in the experiment with U251 CNS; 0.641 µM with MALME-3M melanoma; more than 100 µM with SF-268 CNS; 0.821 µM in the experiment on UACC-257 melanoma; 10.8 µM with NCI-H460 lung; 0.797 µM in the experiment with SK-OV-3 ovarian. Further, the TGI with DU-145 prostate was more than 100 µM; in the experiment with UACC-62 melanoma it was 0.957 µM.

Consider `CCN1CCN(c2ccc(NC(=O)Nc3nc4ccc(-c5ccccc5OC)cc4s3)cc2)CC1`, for which the GI50 in the experiment with U251 CNS was 1.57 µM; in the experiment on MALME-3M melanoma it was 1.71 µM; with SF-268 CNS, 1.87 µM; in the experiment with UACC-257 melanoma, 2.11 µM; with NCI-H460 lung, 1.77 µM; in the experiment with SK-OV-3 ovarian, 1.79 µM. In addition, the GI50 with DU-145 prostate is 1.75 µM; with UACC-62 melanoma, 1.87 µM. In addition, the TGI with U251 CNS was found to be 2.94 µM; with MALME-3M melanoma, 3.34 µM; in the experiment with SF-268 CNS it was 3.63 µM; in the experiment on UACC-257 melanoma, 3.79 µM; in the experiment with NCI-H460 lung it was 3.27 µM; with SK-OV-3 ovarian, 3.55 µM. The concentration for total growth inhibition (TGI) in the experiment on DU-145 prostate was 3.26 µM; with UACC-62 melanoma, 3.45 µM.

As for `Oc1c(C(c2ccc(F)cc2)N2CCCCC2)ccc2cncnc12` (stereo unspecified), the 50% growth inhibitory concentration (GI50) was 0.325 µM with U251 CNS; 1.17 µM with MALME-3M melanoma; 0.484 µM with SF-268 CNS; 0.711 µM in the experiment with UACC-257 melanoma; 0.351 µM with NCI-H460 lung; 0.571 µM in the experiment on SK-OV-3 ovarian. For the same compound, the GI50 with DU-145 prostate was 0.784 µM; in the experiment with UACC-62 melanoma, 0.476 µM. Besides, the concentration for total growth inhibition (TGI) in the experiment with U251 CNS was more than 100 µM; with MALME-3M melanoma it was 47.9 µM; in the experiment on SF-268 CNS, more than 100 µM; with UACC-257 melanoma, 12.2 µM; with NCI-H460 lung it was 14.1 µM; with SK-OV-3 ovarian it was 38.8 µM. The total growth inhibition concentration (TGI) in the experiment with DU-145 prostate was more than 100 µM; with UACC-62 melanoma, 5.11 µM.

The values are drawn from PubChem BioAssay (NCI).
